Row | SMILES | melting point [°C]
1 | CCOCc1nc2c(N)nc(C)c(C)c2n1NC1CCCCC1 [Example 17, N^1-Cyclohexyl-2-ethoxymethyl-6,7-dimethyl-1H-imidazo[4,5-c]pyridine-1,4-diamine] | 108 to 110
2 | CCOCc1nc2c(N)nc(C)c(C)c2n1NCc1cccnc1 [Example 19, 2-Ethoxymethyl-6,7-dimethyl-N^1-(pyridin-3-yl)methyl-1H-imidazo[4,5-c]pyridine-1,4-diamine] | 147 to 149
3 | Cc1nc(N)c2nc(C)n(NC(C)C)c2c1C [Example 11, N^1-Isopropyl-2,6,7-trimethyl-1H-imidazo[4,5-c]pyridine-1,4-diamine] | 203 to 205
4 | CCOCc1nc2c(N)nc(C)cc2n1NC(C)C [Example 3, 2-(Ethoxymethyl)-N^1-isopropyl-6-methyl-1H-imidazo[4,5-c]pyridine-1,4-diamine] | 139 to 141
5 | CCOCc1nc2c(N)nc(C)c(C)c2n1NCCCNC(=O)NC(C)C [Example 16, 1-{3-[(4-Amino-2-ethoxymethyl-6,7-dimethyl-1H-imidazo[4,5-c]pyridin-1-yl)amino]propyl}-3-isopropylurea] | 203 to 205
6 | Cc1nc(N)c2nc(C)n(NCCCNS(C)(=O)=O)c2c1C [Example 15, N-{3-[(4-Amino-2,6,7-trimethyl-1H-imidazo[4,5-c]pyridin 1-yl)amino]propyl}methanesulfonamide] | 215 to 217
7 | CCOCc1nc2c(N)nc3cccnc3c2n1NC(C)C [Example 4, 2-(Ethoxymethyl)-N^1-isopropyl-1H-imidazo[4,5-c][1,5]naphthyridine-1,4-diamine] | 150 to 152
8 | Cc1nc(N)c2nc(CO)n(NC3CCCCC3)c2c1C [Example 18, (4-Amino-1-cyclohexylamino-6,7-dimethyl-1H-imidazo[4,5-c]pyridin-2-yl)methanol] | > 250
9 | CCOCc1nc2c(N)nc(C)c(C)c2n1N(C)C [Example 9, 2-(Ethoxymethyl)-N^1,N^1,6,7-tetramethyl-1H-imidazo[4,5-c]pyridine-1,4-diamine] | 170 to 171
10 | CCc1nc2c(N)nc3cccnc3c2n1NCCCNS(C)(=O)=O [Example 8, N-{3-[(4-amino-2-ethyl-1H-imidazo[4,5-c][1,5]naphthyridin-1-yl)amino]propyl}methanesulfonamide] | 176 to 178
11 | Cc1nc(N)c2ncn(N(C)C)c2c1C [Example 10, N^1,N^1,6,7-Tetramethyl-1H-imidazo[4,5-c]pyridine-1,4-diamine] | 205 to 207
12 | CCOCc1nc2c(N)nc(C)c(C)c2n1NCCCNS(C)(=O)=O [Example 13, N-{3-[(4-Amino-2-ethoxymethyl-6,7-dimethyl-1H-imidazo[4,5-c]pyridin-1-yl)amino]propyl}methanesulfonamide] | 147 to 149
13 | CCOCc1nc2c(N)nc(C)c(C)c2n1NCc1ccccc1 [Example 21, N^1-Benzyl-2-ethoxymethyl-6,7-dimethyl-1H-imidazo[4,5-c]pyridine-1,4-diamine] | 149 to 151
14 | CCOCc1nc2c(N)ncc(C)c2n1NC(C)C [Example 2, 2-(Ethoxymethyl)-N^1-isopropyl-7-methyl-1H-imidazo[4,5-c]pyridine-1,4-diamine] | 119 to 121
15 | CCc1nc2c(N)nc3cccnc3c2n1NC(C)C [Example 7, 2-Ethyl-N^1-isopropyl-1H-imidazo[4,5-c][1,5]naphthyridine-1,4-diamine] | 212 to 213
16 | CCOCc1nc2c(N)nc(C)c(C)c2n1NCCCNC(=O)C1CCCCC1 [Example 14, N-{3-[(4-Amino-2-ethoxymethyl-6,7-dimethyl-1H-imidazo[4,5-c]pyridin-1-yl)amino]propyl}cyclohexanecarboxamide] | 166 to 168
17 | Cc1nc(N)c2nc(CO)n(NC(C)C)c2c1C [Example 12, (4-Amino-1-isopropylamino-6,7-dimethyl-1H-imidazo[4,5-c]pyridin-2-yl)methanol] | 257 to 259
18 | CC(C)Nn1c(CO)nc2c(N)nc3cccnc3c21 [Example 6, [4-Amino-1-(isopropylamino)-1H-imidazo[4,5-c][1,5]naphthyridin-2-yl]methanol] | 242 to 243
19 | CCOCc1nc2c(N)nc(C)c(C)c2n1NC(C)C [Example 1, 2-(Ethoxymethyl)-N^1-isopropyl-6,7-dimethyl-1H-imidazo[4,5-c]pyridine-1,4-diamine] | 110 to 120
20 | Cc1nc(N)c2nc(CO)n(NCc3cccnc3)c2c1C [Example 20, [4-Amino-6,7-dimethyl-1-(pyridin-3-yl)methylamino-1H-imidazo[4,5-c]pyridin-2-yl]methanol] | 258 to 260

Other lines, results leading:

Row | melting point [°C] | SMILES
21 | 148 to 150 | CCOCc1nc2c(N)nc(C)c(C)c2n1NCCCNC(=O)OCC [Example 49]
22 | 242 to 244 | Cc1nc(N)c2nc(C)n(NC3CCCCC3)c2c1C [Example 28, N^1-Cyclohexyl-2,6,7-trimethyl-1H-imidazo[4,5-c]pyridine-1,4-diamine]
23 | 240 to 242 | Cc1nc(N)c2nc(C)n(NC3CCOCC3)c2c1C [Example 32, 2,6,7-Trimethyl-N^1-(tetrahydropyran-4-yl)-1H-imidazo[4,5-c]pyridine-1,4-diamine]
24 | 190 to 192 | Cc1nc(N)c2nc(CCO)n(NC3CCOCC3)c2c1C [Example 50, 2-[4-Amino-6,7-dimethyl-1-(tetrahydropyran-4-yl)amino-1H-imidazo[4,5-c]pyridin-2-yl]ethanol]
25 | 190 to 192 | CCc1nc2c(N)nc(C)c(C)c2n1NC1CCCCC1 [Example 29, N^1-Cyclohexyl-2-ethyl-6,7-dimethyl-1H-imidazo[4,5-c]pyridine-1,4-diamine]
26 | 130 to 132 | CCOCc1nc2c(N)nc(C)c(C)c2n1NC1CCCC1 [Example 46, N^1-Cyclopentyl-2-ethoxymethyl-6,7-dimethyl-1H-imidazo[4,5-c]pyridine-1,4-diamine]
27 | 130 to 133 | CCOCc1nc2cnc3cccnc3c2n1NC1CCOCC1 [Example 36, 2-Ethxoymethyl-N-(tetrahydro-2H-pyran-4-yl)-1H-imidazo[4,5-c][1,5]naphthyridin-1-amine]
28 | 254 to 256 | Cc1nc(N)c2nc(CO)n(NC3CCCC3)c2c1C [Example 47, (4-Amino-1-cyclopentylamino-6,7-dimethyl-1H-imidazo[4,5-c]pyridin-2-yl)methanol]
29 | 191 to 193 | CCc1nc2c(N)nc(C)c(C)c2n1NC1CCOCC1 [Example 48, 2-Ethyl-6,7-dimethyl-N^1-(tetrahydropyran-4-yl)-1H-imidazo[4,5-c]pyridine-1,4-diamine]
30 | 211 to 213 | Cc1nc(N)c2nc(CO)n(NC3CCC3)c2c1C [Example 24, (4-Amino-1-cyclobutylamino-6,7-dimethyl-1H-imidazo[4,5-c]pyridin-2-yl)methanol]
31 | 127 to 131 | CCOCc1nc2c(N)nc(C)c(C)c2n1NC1CCN(S(C)(=O)=O)CC1 [Example 40, 2-(Ethoxymethyl)-6,7-dimethyl-N^1-[1-(methylsulfonyl)piperidin-4-yl]-1H-imidazo[4,5-c]pyridine-1,4-diamine]
32 | > 250 | Cc1nc(N)c2nc(CO)n(NC3CCOCC3)c2c1C [Example 26, [4-Amino-6,7-dimethyl-1-(tetrahydropyran-4-yl)amino-1H-imidazo[4,5-c]pyridin-2-yl]methanol]
33 | 120 to 122 | CCOCc1nc2c(N)nc(C)c(C)c2n1NC1CCOCC1 [Example 25, 2-Ethoxymethyl-6,7-dimethyl-N^1-(tetrahydropyran-4-yl)-1H-imidazo[4,5-c]pyridine-1,4-diamine]
34 | 191 to 193 | CCOCc1nc2c(N)nc3cccnc3c2n1NC1CCOCC1 [Example 37, 2-Ethxoymethyl-N^1-(tetrahydro-2H-pyran-4-yl)-1H-imidazo[4,5-c][1,5]naphthyridine-1,4-diamine]
35 | 169 to 171 | CCOCc1nc2c(N)nc3cccnc3c2n1NCc1ccccc1 [Example 34, N^1-Benzyl-2-ethxoymethyl-1H-imidazo[4,5-c][1,5]naphthyridine-1,4-diamine]
36 | 94 to 97 | CCOCc1nc2cnc(C)c(C)c2n1NC1CCOCC1 [Example 27, 2-Ethoxymethyl-6,7-dimethyl-N-(tetrahydropyranyl)-1H-imidazo[4,5-c]pyridin-1-amine]
37 | > 250 | Cc1nc(N)c2nc(CO)n(NCc3ccccc3)c2c1C [Example 22, (4-Amino-1-benzylamino-6,7-dimethyl-1H-imidazo[4,5-c]pyridin-2-yl)methanol]
38 | 177 to 179 | CCCc1nc2c(N)nc(C)c(C)c2n1NC1CCCCC1 [Example 33, N^1-Cyclohexyl-6,7-dimethyl-2-propyl-1H-imidazo[4,5-c]pyridine-1,4-diamine]
39 | 237 to 239 | Nc1nc2cccnc2c2c1nc(CO)n2NCc1ccccc1 [Example 35, (4-Amino-1-benzylamino-1H-imidazo[4,5-c][1,5]naphthyridin-2-yl)methanol]
40 | 259 to 261 | Cc1nc(N)c2ncn(NC3CCCCC3)c2c1C [Example 30, N^1-Cyclohexyl-6,7-dimethyl-1H-imidazo[4,5-c]pyridine-1,4-diamine]
41 | 110 to 120 | COCCc1nc2c(N)nc(C)c(C)c2n1NC1CCOCC1 [Example 51, 2-(2-Methoxyethyl)-6,7-dimethyl-N^1-(tetrahydropyran-4-yl)-1H-imidazo[4,5-c]pyridine-1,4-diamine]
42 | 139 to 141 | CCOCc1nc2c(N)nc(C)c(C)c2n1NC1CCC1 [Example 23, N^1-Cyclobutyl-2-ethoxymethyl-6,7-dimethyl-1H-imidazo[4,5-c]pyridine-1,4-diamine]
43 | 203 to 205 | OCc1nc2cnc3cccnc3c2n1NC1CCOCC1 [Example 38, [1-(Tetrahydro-2H-pyran-4-yl)amino-1H-imidazo[4,5-c][1,5]naphthyridin-2-yl]methanol]
44 | 160 to 162 | CCCCc1nc2c(N)nc(C)c(C)c2n1NC1CCCCC1 [Example 31, 2-Butyl-N^1-cyclohexyl-6,7-dimethyl-1H-imidazo[4,5-c]pyridine-1,4-diamine]
